Assay results: patent US8729062B2, “Benzyl azetidine derivatives as sphingosine 1-phosphate (S1P) receptor modulators” (Allergan, Inc., priority 2010, dated 2014)

Molecular target: T1, human S1P1 receptor (Homo sapiens, UniProt P21453)
T1 construct: expressed in transfected cells; membranes used
Experiment: GTP γ35S binding assay for S1P1 activity
Type: biochemical
Conditions: membranes of cells stably expressing S1P1 receptor, agonist potency, test range 0.08 to 5,000 nM
Procedure: Compounds were synthesized and tested for S1P1 activity using the GTP γ^35S binding assay. These compounds may be assessed for their ability to activate or block activation of the human S1P1 receptor in cells stably expressing the S1P1 receptor.
GTP γ^35S binding was measured in the medium containing (mM) HEPES 25, pH 7.4, MgCl2 10, NaCl 100, dithitothreitol 0.5, digitonin 0.003%, 0.2 nM GTP γ^35S, and 5 μg membrane protein in a volume of 150 μl. Test compounds were included in the concentration range from 0.08 to 5,000 nM unless indicated otherwise. Membranes were incubated with 100 μM 5′-adenylylimmidodiphosphate for 30 min, and subsequently with 10 μM GDP for 10 min on ice. Drug solutions and membrane were mixed, and then reactions were initiated by adding GTP γ^35S and continued for 30 min at 25° C. Reaction mixtures were filtered over Whatman GF/B filters under vacuum, and washed three times with 3 mL of ice-cold buffer (HEPES 25, pH7.4, MgCl2 10 and NaCl 100). Filters were dried and mixed with scintillant, and counted for ^35S activity using a […]. Agonist-induced GTP γ^35S binding was obtained by subtracting that in the absence of agonist. Binding data were analyzed using a non-linear regression method. In case of antagonist assay, the reaction mixture contained 10 nM S1P in the presence of test antagonist at concentrations ranging from 0.08 to 5000 nM.

T1 sequence (P21453 whole entry): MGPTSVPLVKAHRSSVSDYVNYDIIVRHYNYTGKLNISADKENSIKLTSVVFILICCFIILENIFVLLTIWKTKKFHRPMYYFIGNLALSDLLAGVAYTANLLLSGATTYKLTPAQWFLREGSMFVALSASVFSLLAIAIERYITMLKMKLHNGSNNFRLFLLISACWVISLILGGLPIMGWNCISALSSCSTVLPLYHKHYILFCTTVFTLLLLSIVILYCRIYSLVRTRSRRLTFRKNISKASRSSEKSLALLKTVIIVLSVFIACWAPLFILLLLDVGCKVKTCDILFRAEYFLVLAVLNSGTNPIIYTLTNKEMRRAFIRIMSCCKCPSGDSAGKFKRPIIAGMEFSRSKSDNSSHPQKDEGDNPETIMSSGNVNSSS

Row | SMILES | EC50 [nM]
1 | Cc1ccc(CC(c2cc(F)cc(F)c2)c2nc(-c3ccc(CN4CC(C(=O)O)C4)cc3)no2)cc1C (centres unmarked) [1-(4-{5-[1-(3,5-difluorophenyl)-2-(3,4-dimethylphenyl)ethyl]-1,2,4-oxadiazol-3-yl}benzyl)azetidine-3-carboxylic acid] | 17.1
2 | O=C(O)C1CN(Cc2ccc(-c3noc(C(CC4CCCCC4)c4cccc(Cl)c4)n3)cc2)C1 (centres unmarked) [1-(4-{5-[1-(3-chlorophenyl)-2-cyclohexylethyl]-1,2,4-oxadiazol-3-yl}benzyl)azetidine-3-carboxylic acid] | 1240
3 | Cc1ccc(CC(c2cncc(Cl)c2)c2nc(-c3ccc(CN4CC(C(=O)O)C4)cc3)no2)cc1C (centres unmarked) [1-(4-{5-[1-(5-chloropyridin-3-yl)-2-(3,4-dimethylphenyl)ethyl]-1,2,4-oxadiazol-3-yl}benzyl)azetidine-3-carboxylic acid] | 29.9
4 | Cc1ccc(CC(c2nc(-c3ccc(CN4CC(C(=O)O)C4)cc3)no2)c2cccs2)cc1C (centres unmarked) [1-(4-{5-[2-(3,4-dimethylphenyl)-1-(2-thienyl)ethyl]-1,2,4-oxadiazol-3-yl}benzyl)azetidine-3-carboxylic acid] | 134
5 | Cc1cc(C)cc(C(Cc2ccc(C)c(C)c2)c2nc(-c3ccc(CN4CC(C(=O)O)C4)cc3)no2)c1 (centres unmarked) [1-(4-{5-[2-(3,4-dimethylphenyl)-1-(3,5-dimethylphenyl)ethyl]-1,2,4-oxadiazol-3-yl}benzyl)azetidine-3-carboxylic acid] | 535
6 | Cc1ccc(CC(c2ccsc2)c2nc(-c3ccc(CN4CC(C(=O)O)C4)cc3)no2)cc1C (centres unmarked) [1-(4-{5-[2-(3,4-dimethylphenyl)-1-(3-thienyl)ethyl]-1,2,4-oxadiazol-3-yl}benzyl)azetidine-3-carboxylic acid] | 76.7
7 | Cc1ccc(CC(c2nc(-c3ccc(CN4CC(C(=O)O)C4)cc3)no2)c2cccs2)cc1 (centres unmarked) [1-(4-{5-[2-(4-methylphenyl)-1-(2-thienyl)ethyl]-1,2,4-oxadiazol-3-yl}benzyl)azetidine-3-carboxylic acid] | 209
8 | Cc1ccc(CC(c2ccsc2)c2nc(-c3ccc(CN4CC(C(=O)O)C4)cc3)no2)cc1 (centres unmarked) [1-(4-{5-[2-(4-methylphenyl)-1-(3-thienyl)ethyl]-1,2,4-oxadiazol-3-yl}benzyl)azetidine-3-carboxylic acid] | 146
9 | Cc1ccc(CC(c2cccc(C(F)(F)F)c2)c2nc(-c3ccc(CN4CC(C(=O)O)C4)cc3)no2)cc1C (centres unmarked) [1-[4-(5-{2-(3,4-dimethylphenyl)-1-[3-(trifluoromethyl)phenyl]ethyl}-1,2,4-oxadiazol-3-yl)benzyl]azetidine-3-carboxylic acid] | 89.3
10 | Cc1ccc(CC(c2cccc(Cl)c2)c2nc(-c3ccc(CN4CC(C(=O)O)C4)cc3)no2)cc1C (centres unmarked) [Compound 1, 1-(4-{5-[1-(3-Chlorophenyl)-2-(3,4-dimethylphenyl)ethyl]-1,2,4-oxadiazol-3-yl}benzyl)azetidine-3-carboxylic acid] | 3.77
11 | Cc1ccc(CC(c2cccc(F)c2)c2nc(-c3ccc(CN4CC(C(=O)O)C4)cc3)no2)cc1C (centres unmarked) [Compound 2, 1-(4-{5-[1-(3-fluorophenyl)-2-(3,4-dimethylphenyl)ethyl]-1,2,4-oxadiazol-3-yl}benzyl)azetidine-3-carboxylic acid] | 1.5
